Data published in patent US11007183B2, “Cancer treatments using combinations of PI3K/Akt pathway and ERK inhibitors” (BIOMED VALLEY DISCOVERIES, INC., priority 2013, dated 2021).
Where “and” joins values, the source holds several entries; their conditions need not be identical. Identical values can stand only once.

Experiments:
HCT116 PIK3CA (+/−) = assay: Single agent proliferation assay (CellTiter-Glo, 72 h); format: cell-based, human
Protocol: Cells were seeded in 96-well plates at the densities and media conditions indicated in Table 11 in McCoy's 5A containing either 10% FBS or 1% charcoal-stripped FBS (CS-FBS), and allowed to adhere overnight prior to addition of compound or vehicle control. […] The final DMSO concentration was constant at 0.1%. Test compounds were incubated with the cells for 72 h at 37° C., 5% CO2 in a humidified atmosphere. CellTiter-Glo® reagent (Promega, Madison, Wis.) was added according to manufacturer's instructions and luminescence detected using the BMG FLUOstar plate reader (BMG Labtech, Ortenberg, Germany). The average media only background value was deducted and the data analysed using a 4-parameter logistic equation in GraphPad Prism (GraphPad Software, La Jolla, Calif.).

HCT116 Parental = assay: as above; format: cell-based, human
Protocol: Cells were seeded in 96-well plates at the densities and media conditions indicated in Table 11 in McCoy's 5A containing either 10% FBS or 1% charcoal-stripped FBS (CS-FBS), and allowed to adhere overnight prior to addition of compound or vehicle control. Compounds were prepared from DMSO stocks to give the desired final concentrations. The final DMSO concentration was constant at 0.1%. Test compounds were incubated with the cells for 72 h at 37° C., 5% CO2 in a humidified atmosphere. CellTiter-Glo® reagent (Promega, Madison, Wis.) was added according to manufacturer's instructions and luminescence detected using the BMG FLUOstar plate reader (BMG Labtech, Ortenberg, Germany). The average media only background value was deducted and the data analysed using a 4-parameter logistic equation in GraphPad Prism (GraphPad Software, La Jolla, Calif.).

[1] = Toxicity (body weight, deaths, clinical signs) in the HCT116 xenograft study; format: in vivo, mice; conditions: Group 10: Paclitaxel 30 mg/kg iv qod x 5
Protocol: Animals were weighed daily on Days 1-5, then twice per week until completion of the study. The mice were observed frequently for overt signs of any adverse, TR side effects, and clinical signs were recorded when observed. Individual BW loss was monitored as per protocol, and any animal whose weight exceeded the limits for acceptable BW loss was euthanized. Group mean BW loss also was monitored as per protocol. Dosing was to be suspended in any group that exceeded the limits for acceptable mean BW loss. If mean BW recovered, then dosing was to be resumed in that group, but at a lower dosage or less frequent dosing schedule. Acceptable toxicity for the maximum tolerated dose (MTD) was defined as a group mean BW loss of less than 20% during the study and not more than 10% TR deaths. A death was classified as TR if attributable to treatment side effects as evidenced by clinical signs and/or necropsy, or may also be classified as TR if due to unknown causes during the dosing period or within 14 days of the last dose. A death was classified as NTR if there was no evidence that death was related to treatment side effects. NTR deaths may be further characterized based on cause of death. A death was classified as NTRa if it resulted from an accident or human error. […] A death was classified as NTRu if the cause of death was unknown and there was no available evidence of death related to treatment side effects, metastasis, accident or human error, although death due to treatment side effects cannot be excluded.

[2] = test system: HCT116 human colorectal carcinoma xenograft; assay: HCT116 xenograft tumor growth delay (TGD) study; format: in vivo, mice
Protocol: Female athymic nude mice (Crl:NU(Ncr)-Foxn1^nu, Charles River) were eight weeks old with a body weight (BW) range of 14.6 to 25.7 grams on Day 1 of the study. The animals were fed ad libitum water (reverse osmosis, 1 ppm Cl), and NIH 31 Modified and Irradiated Lab Diet® consisting of 18.0% crude protein, 5.0% crude fat, and 5.0% crude fiber. The mice were housed on irradiated Enrich-O'Cobs™ Laboratory Animal Bedding in static microisolators on a 12-hour light cycle at 20-22° C. (68-72° F.) and 40-60% humidity.
HCT116 human colon carcinoma cells were cultured in RPMI-1640 medium supplemented with 10% fetal bovine serum, 2 mM glutamine, 100 units/mL penicillin G sodium, 100 μg/mL streptomycin sulfate, and 25 μg/mL gentamicin. The tumor cells were grown in tissue culture flasks in a humidified incubator at 37° C., in an atmosphere of 5% CO2 and 95% air.
The HCT116 cells used for implantation were harvested during exponential growth and resuspended in 50% Matrigel (BD Biosciences): 50% phosphate buffered saline at a concentration of 2.5×10^7 cells/mL. On the day of tumor implant, each test mouse was injected subcutaneously in the right flank with 5×10^6 cells (0.2 mL cell suspension), and tumor growth was monitored as the average size approached the target range of 100 to 150 mm^3. Tumors were measured in two dimensions using calipers, and volume was calculated using the formula: Tumor Volume (mm^3)=(w^2×l)/2 where w=width and l=length, in mm, of the tumor. Tumor weight may be estimated with the assumption that 1 mg is equivalent to 1 mm^3 of tumor volume.
Ten days after tumor implantation, designated as Day 1 of the study, the animals were sorted into nine groups (Groups 1-9) each consisting of fifteen mice and one group (Group 10) consisting of ten mice.
BVD-523 doses were prepared by suspending the required amount of BVD-523 powder in 1% carboxymethyl cellulose (CMC) in deionized water (“Vehicle”). A 10 mg/mL BVD-523 stock was prepared, and was used to dose the 100 mg/kg BVD-523 group. Aliquots of the stock were diluted with the vehicle to a concentration of 5.0 mg/mL, which provided a 50 mg/kg BVD-523 dosage in a dosing volume of 10 mL/kg. The BVD-523 doses were stored at 4° C. for up to one week. The 1% CMC vehicle was used to dose the control group.
Paclitaxel (Lot CP2N10007) was purchased as a dry powder from Phyton Biotech, LLC (Fort Worth, Tex.). A paclitaxel stock solution (30 mg/mL) in 50% ethanol: 50% Cremophor EL was prepared and stored at room temperature protected from light during the dosing period. On each day of dosing, an aliquot of the paclitaxel stock was diluted with 5% dextrose in water (D5W) to yield a 3.0 mg/mL paclitaxel dosing solution in a vehicle consisting of 5% ethanol: 5% Cremophor EL: 90% D5W.
On Day 1 of the study, mice were sorted into nine groups (Group 1-9) each consisting of fifteen mice and one group (Group 10) consisting of ten mice, and dosing was initiated according to the treatment plan summarized in Table 4 below. All doses were given by oral gavage (p.o.) except paclitaxel, which was given i.v. For each agent, the dosing volume of 10 mL/kg (0.2 mL per 20 grams of BW) was scaled to the BW of the individual animal. […] For bid dosing, dosing was initiated in the afternoon of Day 1, so that one dose was given on the first day (“first day 1 dose”).
Group 1 received 1% CMC vehicle p.o. bid to end, and served as the control group for calculation of % TGD. Group 10 received paclitaxel i.v. at 30 mg/kg once every other day (qod) for five doses (qod×5), and served as the positive control for the model.
Groups 4 and 5 received 50 and 100 mg/kg BVD-523, respectively, p.o. bid to end.

[3] = test system: HCT116 PIK3CA (+/−) cells; assay: Combination proliferation assay (Loewe/Bliss); format: cell-based, human; conditions: Homo sapiens, HCT-116, read-out: IC50 (single agent, derived from combination assay plates)
Protocol: Test compounds were incubated with the cells for 72 h at 37° C., 5% CO2 in a humidified atmosphere. CellTiter-Glo® reagent (Promega, Madison, Wis.) was added according to manufacturer's instructions and luminescence detected using the BMG FLUOstar plate reader (BMG Labtech, Ortenberg, Germany). The average media only background value was deducted and the data analysed. For the 10×8 combination assays the combination interactions across the dose matrix were determined by the Loewe Additivity and Bliss independence models using ChaliceTM Combination Analysis Software (Horizon Discovery Group, Cambridge, Mass.) as outlined in the user manual (available at chalice.horizondiscovery.com/chalice-portal/documentation/analyzer/home.jsp). Synergy is determined by comparing the experimentally observed level of inhibition at each combination point with the value expected for additivity, which is derived from the single-agent responses along the edges of the matrix. Potential synergistic interactions were identified by displaying the calculated excess inhibition over that predicted as being additive across the dose matrix as a heat map, and by reporting a quantitative 'Synergy Score' based on the Loewe model. The single agent data derived from the combination assay plates were presented as dose-response curves generated in GraphPad Prism (GraphPad Software, La Jolla, Calif.) (plotted using percentage viability relative to DMSO only treated controls). […] (Cbliss is the fractional inhibition that would be expected if the combination of the two drugs were exactly additive). Cbliss values were then subtracted from the experimentally observed fractional inhibition values to give an 'excess over Bliss' value which were plotted as heat maps±SD.

parental HCT116 cells = assay: Combination proliferation assay (Loewe/Bliss); format: cell-based; conditions: Homo sapiens, HCT-116, 2.5% serum, mean of n=4 separate combinations, read-out: IC50 (single agent, derived from combination assay plates)
Protocol: Cells were seeded into triplicate 96-well plates at the densities indicated in Table 11 in McCoy's 5A media containing 2.5% FBS and allowed to adhere overnight prior to addition of test compound or vehicle control. Combinations were tested using either a 10×8 or for the follow-up HCT116 study a 3×1 dose matrix.
Test compounds were incubated with the cells for 72 h at 37° C., 5% CO2 in a humidified atmosphere. CellTiter-Glo® reagent (Promega, Madison, Wis.) was added according to manufacturer's instructions and luminescence detected using the BMG FLUOstar plate reader (BMG Labtech, Ortenberg, Germany). The average media only background value was deducted and the data analysed.
For the 10×8 combination assays the combination interactions across the dose matrix were determined by the Loewe Additivity and Bliss independence models using Chalice™ Combination Analysis Software (Horizon Discovery Group, Cambridge, Mass.) as outlined in the user manual (available at chalice.horizondiscovery.com/chalice-portal/documentation/analyzer/home.jsp). Synergy is determined by comparing the experimentally observed level of inhibition at each combination point with the value expected for additivity, which is derived from the single-agent responses along the edges of the matrix. […]

[4] = Homo sapiens, HCT-116, 72 h, 1% CS-FBS
[5] = Homo sapiens, HCT-116, 72 h, 10% FBS
[6] = Group 1 (vehicle) vs Group 10 (Paclitaxel 30 mg/kg iv qod x 5)
[7] = Group 10: Paclitaxel 30 mg/kg iv qod x 5

Row | SMILES | IC50 (HCT116 PIK3CA (+/−); [4]) | IC50 (HCT116 PIK3CA (+/−); [5]) | IC50 (HCT116 Parental; [4]) | IC50 (HCT116 Parental; [5]) | also measured
1 | CC(=O)O[C@H]1C(=O)[C@@]2(C)[C@H]([C@H](OC(=O)c3ccccc3)[C@]3(O)C[C@H](OC(=O)[C@H](O)[C@@H](NC(=O)c4ccccc4)c4ccccc4)C(C)=C1C3(C)C)[C@]1(OC(C)=O)CO[C@@H]1C[C@@H]2O [Paclitaxel, reference compound] | 3 nM | 2 nM | 3 nM | 2 nM | Deaths NTR [1]: 0; Deaths TR [1]: 0; Are survival curves diff.? [2, 6]: Yes; Logrank test Chi square [2, 6]: 24.03; % TGD [2, 7]: 38%; MTV (n): number of animals on D 45 (45-day survivors) [2, 7]: (10); MTV D 45 (median tumor volume) [2, 7]: 688 mm^3; Median TTE [2, 7]: 45.0 days; Regressions CR [2, 7]: 0; Regressions PR [2, 7]: 8/10 and 8; Regressions TFS [2, 7]: 0; T − C [2, 7]: 12.3 days
2 | O=C(Nc1ccc2[nH]nc(-c3ccncc3)c2c1)[C@@H]1CCN(CC(=O)N2CCN(c3ccc(-c4ncccn4)cc3)CC2)C1 [SCH772984] | 10 nM | 80 nM | 30 nM | 140 nM | IC50 [3]: 30 nM; IC50 (parental HCT116 cells): 210 nM
3 | COc1ccc(-c2cc3c(C)nc(N)nc3n([C@H]3CC[C@H](OCCO)CC3)c2=O)cn1 [PF-04691502] | – | – | – | – | IC50 (HCT116 PIK3CA (+/−); 1% CS-FBS): 1540 nM; IC50 (HCT116 PIK3CA (+/−); 10% FBS): 420 nM; IC50 (HCT116 Parental; 1% CS-FBS): 70 nM; IC50 (HCT116 Parental; 10% FBS): 290 nM
4 | CC(C)n1nc(-c2ccc3oc(N)nc3c2)c2c(N)ncnc21 [INK128] | 20 nM | 70 nM | 30 nM | 50 nM | –
5 | CS(=O)(=O)N1CCN(Cc2cc3nc(-c4cccc5[nH]ncc45)nc(N4CCOCC4)c3s2)CC1 [GDC-0941, pictilisib] | – | – | 60 nM | 1530 nM | –
6 | Nc1cc(C(F)(F)F)c(-c2cc(N3CCOCC3)nc(N3CCOCC3)n2)cn1 [BKM120] | 1030 nM | 520 nM | 530 nM | 620 nM | –
